Measured values as given in patent US9951064B2, “Azaindazole compounds as inhibitors of T790M containing EGFR mutants” (Genentech, Inc., priority 2013, dated 2018).

What was measured:
EGFR T790M L858R = target: T1, EGFR T790M L858R (Homo sapiens, UniProt P00533, L858R/T790M); experiment: EGFR T790M L858R biochemical assay (Caliper mobility shift); conditions: 5 μM ATP; apparent Ki (Morrison fit) converted by Cheng-Prusoff, Km of ATP 1.3 μM
T1 construct: purchased Life Technologies PV4879
Procedure, shortened: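 Reactions run 30 minutes at room temperature (22 °C), stopped with 80 mM EDTA. Phosphorylated product and substrate separated electrophoretically and quantified by Caliper mobility shift.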

EGFR del746-750 T790M = target: T2, EGFR del746-750 T790M (Homo sapiens, UniProt P00533, DEL746-750/T790M); experiment: EGFR del746-750 T790M biochemical assay (Caliper mobility shift); conditions: 5 μM ATP; apparent Ki (Morrison fit) converted by Cheng-Prusoff, Km of ATP 2.1 μM; read-out: EGFR(T790M/d746-750) Ki
T2 construct: purchased Carna Biosciences 08-528
T2 sequence (P00533 with tags, fused parts or gaps DEL746-750/T790M limits assumed): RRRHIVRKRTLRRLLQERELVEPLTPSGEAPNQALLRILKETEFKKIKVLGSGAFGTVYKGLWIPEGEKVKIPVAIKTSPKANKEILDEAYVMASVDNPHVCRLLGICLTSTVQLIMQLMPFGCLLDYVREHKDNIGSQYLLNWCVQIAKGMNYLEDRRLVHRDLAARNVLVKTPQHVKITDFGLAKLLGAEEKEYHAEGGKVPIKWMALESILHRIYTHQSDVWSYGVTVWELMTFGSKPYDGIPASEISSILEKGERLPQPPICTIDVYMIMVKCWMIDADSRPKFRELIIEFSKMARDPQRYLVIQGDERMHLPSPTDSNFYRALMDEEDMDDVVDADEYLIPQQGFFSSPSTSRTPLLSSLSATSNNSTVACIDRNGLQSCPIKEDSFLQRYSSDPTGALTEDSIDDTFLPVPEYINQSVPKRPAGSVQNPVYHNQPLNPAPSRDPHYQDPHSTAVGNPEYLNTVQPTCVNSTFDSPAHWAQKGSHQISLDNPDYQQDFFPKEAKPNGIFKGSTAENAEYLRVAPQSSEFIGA
Procedure, shortened: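 Kinase reactions ran 30 min at room temperature (22 °C), then were stopped with 80 mM EDTA. Phosphorylated product and substrate were separated electrophoretically and quantified by Caliper mobility shift.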

[1] = target: T3, phosphor-EGFR in H1975(L585R/T790M) mutant EGFR expressing cells (Homo sapiens, UniProt P00533, L858R/T790M); experiment: H1975 pEGFR MSD cellular assay; assay type: cell-based; conditions: NCI-H1975 cells, serum starved, 1 hour compound incubation, pEGFR Tyr1068 MSD; read-out: HI975 pEGFR EC50
T3 construct: host or cells: NCI-H1975
T3 sequence (P00533 25-1210 T790M/L858R): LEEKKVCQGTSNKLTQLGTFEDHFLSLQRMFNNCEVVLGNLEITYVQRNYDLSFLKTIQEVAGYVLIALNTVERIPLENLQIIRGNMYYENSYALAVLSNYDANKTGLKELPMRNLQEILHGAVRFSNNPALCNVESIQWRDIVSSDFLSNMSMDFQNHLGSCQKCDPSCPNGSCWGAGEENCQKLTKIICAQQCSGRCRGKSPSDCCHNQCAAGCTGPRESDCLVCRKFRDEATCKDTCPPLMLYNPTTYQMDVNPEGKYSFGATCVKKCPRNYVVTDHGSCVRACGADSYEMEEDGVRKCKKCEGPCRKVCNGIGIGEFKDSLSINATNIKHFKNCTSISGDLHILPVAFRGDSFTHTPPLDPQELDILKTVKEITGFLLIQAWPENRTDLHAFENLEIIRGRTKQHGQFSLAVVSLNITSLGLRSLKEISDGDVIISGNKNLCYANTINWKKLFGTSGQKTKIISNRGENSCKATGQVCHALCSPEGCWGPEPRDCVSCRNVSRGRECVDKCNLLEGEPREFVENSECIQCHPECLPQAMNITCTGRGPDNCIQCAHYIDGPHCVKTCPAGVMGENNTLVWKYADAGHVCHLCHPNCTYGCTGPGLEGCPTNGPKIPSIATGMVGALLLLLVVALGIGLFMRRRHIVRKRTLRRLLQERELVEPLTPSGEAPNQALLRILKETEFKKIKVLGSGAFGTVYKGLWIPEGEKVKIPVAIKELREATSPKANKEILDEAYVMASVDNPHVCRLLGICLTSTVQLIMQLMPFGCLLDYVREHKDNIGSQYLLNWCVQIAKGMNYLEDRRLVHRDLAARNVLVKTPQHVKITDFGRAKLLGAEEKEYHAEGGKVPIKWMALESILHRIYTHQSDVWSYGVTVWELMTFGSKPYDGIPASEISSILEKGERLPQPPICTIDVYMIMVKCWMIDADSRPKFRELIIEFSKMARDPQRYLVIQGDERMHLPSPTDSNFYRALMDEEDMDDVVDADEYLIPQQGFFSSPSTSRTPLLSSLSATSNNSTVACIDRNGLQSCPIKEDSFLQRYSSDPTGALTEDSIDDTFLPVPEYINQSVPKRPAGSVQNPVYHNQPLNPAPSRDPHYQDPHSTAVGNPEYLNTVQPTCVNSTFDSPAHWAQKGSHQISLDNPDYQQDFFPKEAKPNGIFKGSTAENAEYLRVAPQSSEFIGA
Procedure, shortened: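 NCI-H1975 cells, 30,000/well, serum-starved overnight, then treated 1 hour at 37° C with serially diluted compounds in serum-free medium (0.5% DMSO). Lysates captured on anti-phospho-EGFR plates overnight at 4° C, detected with SULFO-TAG anti-total EGFR by electrochemiluminescence. Inhibition vs untreated controls; EC50 from 4-parameter logistic fit.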

[2] = system: H1975 (EGFR T790M/L858R) cell proliferation; experiment: H1975 proliferation assay (Cell Titer-Glo); assay type: cell-based; conditions: Homo sapiens, NCI-H1975, 72 h, NCI-H1975 cells, 72 hour incubation, read-out: H1975 antiproliferative EC50
Protocol: H1975 Proliferation Assays
All cell culture reagents were purchased from Invitrogen/Gibco. Cells are cultured at 37° C. at 5% CO2 and split as recommended by ATCC.

T1 sequence (P00533 25-1210 T790M/L858R): as above

| Compound | Ki (EGFR T790M L858R) | Ki (EGFR del746-750 T790M) | EC50 [1] | EC50 [2] |
| --- | --- | --- | --- | --- |
| CC(C)n1nc(N2CC(C(=O)NCC(F)(F)F)C2)c2cnc(Nc3ccnc(-c4cnn(S(=O)(=O)C5CC5)c4)n3)cc21 [Example 165, 1-(6-(2-(1-(Cyclopropylsulfonyl)-1H-pyrazol-4-yl)pyrimidin-4-ylamino)-1-isopropyl-1H-pyrazolo[4,3-c]pyridin-3-yl)-N-(2,2,2-trifluoroethyl)azetidine-3-carboxamide] | 1.9 nM | 1.9 nM | 95.6 nM | 193 nM |
| CC(C)n1nc(N2CC(C(=O)N3CC[C@H](CO)C3)C2)c2cnc(Nc3ccnc(-c4cnn(S(=O)(=O)C5CC5)c4)n3)cc21 [Example 166, (S)-(1-(6-(2-(1-(cyclopropylsulfonyl)-1H-pyrazol-4-yl)pyrimidin-4-ylamino)-1-isopropyl-1H-pyrazolo[4,3-c]pyridin-3-yl)azetidin-3-yl)(3-(hydroxymethyl)pyrrolidin-1-yl)methanone] | 0.7 nM | 0.7 nM | 177 nM | 1160 nM |
| CC(C)n1nc(N2CC(C(=O)N3CC[C@@H](CO)C3)C2)c2cnc(Nc3ccnc(-c4cnn(S(=O)(=O)C5CC5)c4)n3)cc21 [Example 167, (R)-(1-(6-(2-(1-(cyclopropylsulfonyl)-1H-pyrazol-4-yl)pyrimidin-4-ylamino)-1-isopropyl-1H-pyrazolo[4,3-c]pyridin-3-yl)azetidin-3-yl)(3-(hydroxymethyl)pyrrolidin-1-yl)methanone] | 0.7 nM | 0.5 nM | 189 nM | 1830 nM |
| CC(C)n1nc(N2CC(C(=O)N3CC4CCC(C3)O4)C2)c2cnc(Nc3ccnc(-c4cnn(S(=O)(=O)C5CC5)c4)n3)cc21 [Example 168, 8-Oxa-3-azabicyclo[3.2.1]octan-3-yl(1-(6-(2-(1-(cyclopropylsulfonyl)-1H-pyrazol-4-yl)pyrimidin-4-ylamino)-1-isopropyl-1H-pyrazolo[4,3-c]pyridin-3-yl)azetidin-3-yl)methanone] | 1.5 nM | 1.2 nM | 25.5 nM | 283 nM |
| CC(C)NC(=O)C1CN(c2nn(C(C)C)c3cc(Nc4ccnc(-c5cnn(S(=O)(=O)C6CC6)c5)n4)ncc23)C1 [Example 169, 1-(6-(2-(1-(Cyclopropylsulfonyl)-1H-pyrazol-4-yl)pyrimidin-4-ylamino)-1-isopropyl-1H-pyrazolo[4,3-c]pyridin-3-yl)-N-isopropylazetidine-3-carboxamide] | 1.4 nM | 1.2 nM | 34.2 nM | 825 nM |
| CC(C)n1nc(N2CC(C(=O)NC3CC(O)C3)C2)c2cnc(Nc3ccnc(-c4cnn(S(=O)(=O)C5CC5)c4)n3)cc21 (centres unmarked) [Example 170, 1-(6-(2-(1-(Cyclopropylsulfonyl)-1H-pyrazol-4-yl)pyrimidin-4-ylamino)-1-isopropyl-1H-pyrazolo[4,3-c]pyridin-3-yl)-N-(3-hydroxycyclobutyl)azetidine-3-carboxamide] | 1.4 nM | 1.2 nM | 731 nM | > 10000 nM |
| CC(n1nc(N2CCNC2=O)c2cnc(Nc3ccnc(N4CCC(C)(O)CC4)n3)cc21)C(F)(F)F (centres unmarked) [Example 171, 1-(6-(2-(4-Hydroxy-4-methylpiperidin-1-yl)pyrimidin-4-ylamino)-1-(1,1,1-trifluoropropan-2-yl)-1H-pyrazolo[4,3-c]pyridin-3-yl)imidazolidin-2-one] | 6.2 nM | 33.1 nM | 703 nM | 1070 nM |
| CC(n1nc(N2CC3(COC3)C2)c2cnc(Nc3ccnc(-c4cnn(S(=O)(=O)C5CC5)c4)n3)cc21)C(F)(F)F (centres unmarked) [Example 172, N-(2-(1-(Cyclopropylsulfonyl)-1H-pyrazol-4-yl)pyrimidin-4-yl)-3-(2-oxa-6-azaspiro[3.3]heptan-6-yl)-1-(1,1,1-trifluoropropan-2-yl)-1H-pyrazolo[4,3-c]pyridin-6-amine] | 1.8 nM | 2.5 nM | 154 nM | 699 nM |
